# Source: patent US12077503B2, “Substituted cyclic amides and their use as herbicides” (FMC CORPORATION, priority 2015, dated 2024)
# Columns and labels:
# Type in all cases: in vivo
# Kochia (Kochia scoparia) [1] = test: Test A preemergence
# Summary of the method: (§1)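 Preemergence directed soil spray on seeded pots, or postemergence application to plants 2–10 cm, one- to two-leaf. Solvent mixture non-phytotoxic, with surfactant. Scored ~10 d later, visually, 0–100 vs untreated.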
# [2] = system: barnyardgrass (Echinochloa crus-galli); test: Test A preemergence
# Summary of the method: as §1
# [3] = system: giant foxtail (Setaria faberii); test: Test A preemergence
# Summary of the method: as §1
# [4] = system: pigweed (Amaranthus retroflexus); test: Test A preemergence
# [5] = system: ragweed (common ragweed, Ambrosia elatior); test: Test A preemergence
# Summary of the method: as §1
# [6] = system: ryegrass, Italian (Italian ryegrass, Lolium multiflorum); test: Test A preemergence
# Summary of the method: as §1
# [7] = system: Galium (catchweed bedstraw, Galium aparine); test: Test A postemergence; details: postemergence
# Summary of the method: as §1
# Kochia (Kochia scoparia) [8] = test: Test A postemergence; details: postemergence
# Summary of the method: as §1
# [9] = system: barnyardgrass (Echinochloa crus-galli); test: Test A postemergence; details: postemergence
# Summary of the method: as §1
# [10] = system: blackgrass (Alopecurus myosuroides); test: Test A postemergence; details: postemergence
# Summary of the method: as §1
# corn (Zea mays) = test: Test A postemergence; details: postemergence
# Summary of the method: as §1
# [11] = system: giant foxtail (Setaria faberii); test: Test A postemergence; details: postemergence
# Summary of the method: as §1
# [12] = system: pigweed (Amaranthus retroflexus); test: Test A postemergence; details: postemergence
# Summary of the method: as §1
# [13] = system: ragweed (common ragweed, Ambrosia elatior); test: Test A postemergence; details: postemergence
# Summary of the method: as §1
# [14] = system: ryegrass, Italian (Italian ryegrass, Lolium multiflorum); test: Test A postemergence; details: postemergence
# Summary of the method: as §1
# [15] = system: wheat (Triticum aestivum); test: Test A postemergence; details: postemergence
# Summary of the method: as §1
# [16] = system: barnyardgrass (Echinochloa crus-galli); test: Test B flooded paddy test; details: Flood, 250 g ai/ha; 0 to 100 scale where 0 is no effect and 100 is complete control; 13 to 15 d
# Summary of the method: (§2)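 2-leaf plants; pots flooded 3 cm over soil; cpd added to paddy water; depth held; greenhouse 13–15 d; visual rating vs controls, 0 = no effect, 100 = complete control.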
# [17] = system: ducksalad (Heteranthera limosa); test: Test B flooded paddy test; details: Flood, 250 g ai/ha; 0 to 100 scale where 0 is no effect and 100 is complete control; 13 to 15 d
# Summary of the method: as §2
# rice (Oryra sativa) = test: Test B flooded paddy test; details: Flood, 250 g ai/ha; 0 to 100 scale where 0 is no effect and 100 is complete control; 13 to 15 d
# Summary of the method: as §2
# [18] = system: sedge, umbrella (small-flower umbrella sedge, Cyperus difformis); test: Test B flooded paddy test; details: Flood, 250 g ai/ha; 0 to 100 scale where 0 is no effect and 100 is complete control; 13 to 15 d
# Summary of the method: as §2
# [19] = 125 g ai/ha, preemergence, 0 to 100 scale (0 no effect, 100 complete control)
# [20] = Preemergence, 500 g ai/ha, visual injury approx. 10 d
# [21] = 125 g ai/ha, visual injury rating on 0 to 100 scale (0 no effect, 100 complete control), approx. 10 d
# [22] = 500 g ai/ha, 0 to 100 scale, 0 no effect, 100 complete control
# [23] = 125 g ai/ha, Preemergence, visual injury after approximately 10 d, 0 to 100 scale where 0 is no effect and 100 is complete control
# [24] = 500 g ai/ha, preemergence, 0 to 100 scale, 0 = no effect, 100 = complete control
# [25] = 125 g ai/ha, visual rating after approx. 10 d, 0 to 100 scale (0 no effect, 100 complete control)
# [26] = 500 g ai/ha, visual injury, 0 to 100 scale (0 no effect, 100 complete control), approx. 10 d
smiles,measurement,setting,value
O=C1NCC(c2ccc(Br)cc2)C1C(=O)Nc1ccccc1F (stereo not drawn) [Compound 448],"Plant response rating, Kochia",Kochia (Kochia scoparia) [1]; [19],20
same,"Kochia plant response rating (0 to 100 scale, 0 is no effect, 100 is complete control)",Kochia (Kochia scoparia) [1]; [20],50
same,"Plant response rating, Barnyardgrass",[2]; [19],90
same,"Barnyardgrass plant response rating (0 to 100 scale, 0 is no effect, 100 is complete control)",[2]; [20],90
same,"Plant response rating, Foxtail, Giant",[3]; [19],90
same,"Foxtail, Giant plant response rating (0 to 100 scale, 0 is no effect, 100 is complete control)",[3]; [20],90
same,"Plant response rating, Pigweed",[4]; [19],20
same,"Pigweed plant response rating (0 to 100 scale, 0 is no effect, 100 is complete control)",[4]; [20],40
same,"Plant response rating, Ragweed",[5]; [19],0
same,"Ragweed plant response rating (0 to 100 scale, 0 is no effect, 100 is complete control)",[5]; [20],20
same,"Plant response rating, Ryegrass, Italian",[6]; [19],0
same,"Ryegrass, Italian plant response rating (0 to 100 scale, 0 is no effect, 100 is complete control)",[6]; [20],20
same,Galium plant response rating,[7]; [21],30
same,"Plant response rating, Galium",[7]; [22],50
same,Kochia plant response rating,Kochia (Kochia scoparia) [8]; [21],30
same,"Plant response rating, Kochia",Kochia (Kochia scoparia) [8]; [22],50
same,Barnyardgrass plant response rating,[9]; [21],80
same,"Plant response rating, Barnyardgrass",[9]; [22],90
same,Blackgrass plant response rating,[10]; [21],0
same,"Plant response rating, Blackgrass",[10]; [22],30
same,Corn plant response rating,corn (Zea mays); [21],0
same,"Plant response rating, Corn",corn (Zea mays); [22],0
same,"Foxtail, Giant plant response rating",[11]; [21],60
same,"Plant response rating, Foxtail, Giant",[11]; [22],80
same,Pigweed plant response rating,[12]; [21],20
same,"Plant response rating, Pigweed",[12]; [22],40
same,Ragweed plant response rating,[13]; [21],0
same,"Plant response rating, Ragweed",[13]; [22],0
same,"Ryegrass, Italian plant response rating",[14]; [21],0
same,"Plant response rating, Ryegrass, Italian",[14]; [22],20
same,Wheat plant response rating,[15]; [21],0
same,"Plant response rating, Wheat",[15]; [22],0
same,"Plant response rating, Barnyardgrass",[16],40
same,"Plant response rating, Ducksalad",[17],95
same,"Plant response rating, Rice",rice (Oryra sativa),0
same,"Plant response rating, Sedge, Umbrella",[18],0
CN1CC(c2cc(F)cc(F)c2)C(C(=O)Nc2cccc3c2CCC3)C1=O (stereo not drawn) [Compound 659],"Plant response rating, Kochia",Kochia (Kochia scoparia) [1]; [23],0
same,"Plant response rating, Kochia",Kochia (Kochia scoparia) [1]; [24],0
same,"Plant response rating, Barnyardgrass",[2]; [23],90
same,"Plant response rating, Barnyardgrass",[2]; [24],90
same,"Plant response rating, Foxtail, Giant",[3]; [23],90
same,"Plant response rating, Foxtail, Giant",[3]; [24],90
same,"Plant response rating, Pigweed",[4]; [23],0
same,"Plant response rating, Pigweed",[4]; [24],0
same,"Plant response rating, Ragweed",[5]; [23],0
same,"Plant response rating, Ragweed",[5]; [24],0
same,"Plant response rating, Ryegrass, Italian",[6]; [23],0
same,"Plant response rating, Ryegrass, Italian",[6]; [24],30
same,"Plant response rating, Galium",[7]; [25],0
same,"Plant response rating, Galium",[7]; [26],20
same,"Plant response rating, Kochia",Kochia (Kochia scoparia) [8]; [25],20
same,"Plant response rating, Kochia",Kochia (Kochia scoparia) [8]; [26],20
same,"Plant response rating, Barnyardgrass",[9]; [25],70
same,"Plant response rating, Barnyardgrass",[9]; [26],90
same,"Plant response rating, Blackgrass",[10]; [25],40
same,"Plant response rating, Blackgrass",[10]; [26],50
same,"Plant response rating, Corn",corn (Zea mays); [25],0
same,"Plant response rating, Corn",corn (Zea mays); [26],50
same,"Plant response rating, Foxtail, Giant",[11]; [25],90
same,"Plant response rating, Foxtail, Giant",[11]; [26],90
same,"Plant response rating, Pigweed",[12]; [25],0
same,"Plant response rating, Pigweed",[12]; [26],0
same,"Plant response rating, Ragweed",[13]; [25],0
same,"Plant response rating, Ragweed",[13]; [26],0
same,"Plant response rating, Ryegrass, Italian",[14]; [25],0
same,"Plant response rating, Ryegrass, Italian",[14]; [26],60
same,"Plant response rating, Wheat",[15]; [25],0
same,"Plant response rating, Wheat",[15]; [26],50
same,"Plant response rating, Barnyardgrass",[16],60
same,"Plant response rating, Ducksalad",[17],80
same,"Plant response rating, Rice",rice (Oryra sativa),15
same,"Plant response rating, Sedge, Umbrella",[18],0
